These results are taken from patent US5212187A, “Pyridyl alkylamine compounds which are useful against histamine H1 and H2 receptors” (Zyma SA, priority 1991, dated 1993).

Structures are written as SMILES.

The target of one assay is T1, histamine H1 -receptors (Cavia porcellus, UniProt P31389).
T1 construct: isolated guinea pig ileum (H1); from tissue; host or cells: isolated guinea pig ileum
Briefly: in vitro histamine H1-antagonism on isolated guinea pig ileum. The note with it: cumulative concentration/action curves (van Rossum), read-out: H1 -antagonism ileum -log KB (converted). An excerpt:
(§1) The compounds of formula I according to the invention are distinguished by a novel overall pharmacological activity that has not been described hitherto. […] Suitable for differentiating the two types of action are, for example, in vitro tests on isolated spontaneously beating guinea pig right atrium (H2) and on isolated guinea pig ileum (H1) (Black, J. W.; Duncan, W. A. M.; Durant, G. J., Ganellin, C. R.; Parsons, M. E. (1972), "Definition and Antagonism of Histamine H2 -receptors", Nature 236, 385-390). The concentration/action curves for determining the pharmacological parameters (-log KB) are recorded using a cumulative technique according to van Rossum, J. M. (1963), "Cumulative Dose-Response Curves. II. Technique for the Making of Dose-Response Curves in Isolated Organs and the Evaluation of Drug Parameters", Arch. Int. Pharmacodyn. Ther. 143, 299-307.
(§2) (determined from isolated guinea pig ileum and atrium, […]

The next assay deals with T2, histamine H2 -receptors (Cavia porcellus, UniProt P47747).
T2 construct: isolated spontaneously beating guinea pig right atrium (H2); from tissue; host or cells: isolated spontaneously beating guinea pig right atrium
Briefly: in vitro histamine H2-antagonism on isolated spontaneously beating guinea pig right atrium. The note with it: cumulative concentration/action curves (van Rossum), read-out: H2 -antagonism atrium -log KB (converted).
From the text: as §1, §2

T2 sequence (P47747 whole entry): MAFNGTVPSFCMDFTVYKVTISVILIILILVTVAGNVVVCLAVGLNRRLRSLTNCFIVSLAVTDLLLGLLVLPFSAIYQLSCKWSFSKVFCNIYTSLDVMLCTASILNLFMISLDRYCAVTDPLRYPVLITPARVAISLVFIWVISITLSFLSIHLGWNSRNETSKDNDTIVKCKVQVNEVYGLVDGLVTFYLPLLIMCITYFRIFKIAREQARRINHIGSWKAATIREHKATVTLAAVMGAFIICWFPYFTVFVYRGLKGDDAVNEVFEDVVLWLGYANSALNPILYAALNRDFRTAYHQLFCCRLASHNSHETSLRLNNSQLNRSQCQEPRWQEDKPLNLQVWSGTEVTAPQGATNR
T1 sequence (P31389 whole entry): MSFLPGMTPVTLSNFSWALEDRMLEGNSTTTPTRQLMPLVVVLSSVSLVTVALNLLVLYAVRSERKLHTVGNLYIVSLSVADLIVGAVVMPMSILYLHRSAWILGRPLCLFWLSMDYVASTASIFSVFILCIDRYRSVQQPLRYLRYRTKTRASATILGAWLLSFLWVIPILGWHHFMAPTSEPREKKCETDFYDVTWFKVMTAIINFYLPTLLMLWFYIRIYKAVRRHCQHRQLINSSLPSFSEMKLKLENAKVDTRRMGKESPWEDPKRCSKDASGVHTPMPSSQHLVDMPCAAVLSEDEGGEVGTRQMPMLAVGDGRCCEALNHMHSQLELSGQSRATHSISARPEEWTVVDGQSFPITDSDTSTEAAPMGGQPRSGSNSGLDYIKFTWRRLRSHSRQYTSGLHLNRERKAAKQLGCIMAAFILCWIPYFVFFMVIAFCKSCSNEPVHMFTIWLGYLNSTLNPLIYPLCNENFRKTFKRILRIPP

As usually defined, the Kb is the equilibrium dissociation constant of an antagonist, usually derived from a functional assay. As to `CC(C1=C(CCN(C)CCCCCCNC(=C[N+](=O)[O-])NCCSCc2csc(N=C(N)N)n2)Cc2ccccc21)c1ccccn1` (stereo not shown) [Example 105, N-[2-[[(2-guanidino-4-thiazolyl)methyl]thio]ethyl]-N'-[6-[N-methyl-N-[2-[1-(2-pyridyl)ethyl]inden-2-yl]ethylamino]hexyl]-2-nitro-1,1-ethenediamine], the Kb is 36.3 nM on histamine H1 -receptors and 28.8 nM at histamine H2 -receptors.

`COc1ccc(CN(CCN(C)CCCCCCNC(=C[N+](=O)[O-])NCCCOc2cccc(CN3CCCCC3)c2)c2ccccn2)cc1` [Example 75, N-[6-[N-[2-[N-(4-methoxybenzyl)-N-(2-pyridyl)amino]ethyl]-N-methylamino]hexyl]-N'-[3-[3-(piperidinomethyl)phenoxy]propyl]-2-nitro-1,1-ethenediamine]: the Kb on histamine H1 -receptors was 12.3 nM; on histamine H2 -receptors, 123 nM.

Regarding `CN(CCCCCCCCNC(=O)NCCSCc1csc(NC(=N)N)n1)CCC(c1ccc(Cl)cc1)c1ccccn1` (stereo not shown) [Example 35, N-[8-[N-[3-(4-chlorophenyl)-3-(2-pyridyl)propyl]-N-methylamino]octyl]-N'-[2-[[(2-guanidino-4-thiazolyl)methyl]thio]ethyl]urea], the Kb at histamine H1 -receptors is 13.8 nM; on histamine H2 -receptors, 39.8 nM.

In the case of `CN(CCCCCCNC(=O)NCCSCc1csc(NC(=N)N)n1)CCC(c1ccc(Cl)cc1)c1ccccn1` (stereo not shown) [Example 37, N-[6-[N-[3-(4-chlorophenyl)-3-(2-pyridyl)propyl]-N-methylamino]hexyl]-N'-[2-[[(2-guanidino-4-thiazolyl)methyl]thio]ethyl]urea], the values for the Kb on histamine H1 -receptors and on histamine H2 -receptors were 7.41 nM and 123 nM, respectively.

On to `COc1ccc(CN(CCN(C)CCCCCCNC(=O)NCCCOc2cccc(CN3CCCCC3)c2)c2ccccn2)cc1` [Example 66, N-[6-[N-[2-[N-(4-methoxybenzyl)-N-(2-pyridyl)amino]ethyl]-N-methylamino]hexyl]-N'-[3-[3-(piperidinomethyl)phenoxy]propyl]urea], for which the values for the Kb at histamine H1 -receptors and on histamine H2 -receptors were 11.2 nM and 182 nM, respectively.
